Assay results as given in ChEMBL document CHEMBL1201862, “PubChem BioAssay data set” (2004).
Blank lines part the entries; values can stand above or below the molecule they belong to. The source made the active and inactive calls.

What was measured:
[1] = viability inhibitors of stage V gametocytes – luminescence, dose response (AID 1117278); type: functional, cell-based;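 note: gametocytes exposed to compound for 24 hours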
[2] = viability loss in human Jurkat cells – cell-based, luminescence, cytotoxicity control for P. falciparum gametocyte viability project, dose response (AID 1117277); type: functional;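 note: potency reflects loss of cellular ATP meaning fewer viable cells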
[3] = target: T1, Mannose-6-phosphate isomerase (Homo sapiens, UniProt P34949); assay: MPI inhibition at elevated mannose 6-phosphate – biochemical, fluorescence intensity, high mannose 6-phosphate, primary screen (AID 1220)
T1 sequence (P34949 whole entry): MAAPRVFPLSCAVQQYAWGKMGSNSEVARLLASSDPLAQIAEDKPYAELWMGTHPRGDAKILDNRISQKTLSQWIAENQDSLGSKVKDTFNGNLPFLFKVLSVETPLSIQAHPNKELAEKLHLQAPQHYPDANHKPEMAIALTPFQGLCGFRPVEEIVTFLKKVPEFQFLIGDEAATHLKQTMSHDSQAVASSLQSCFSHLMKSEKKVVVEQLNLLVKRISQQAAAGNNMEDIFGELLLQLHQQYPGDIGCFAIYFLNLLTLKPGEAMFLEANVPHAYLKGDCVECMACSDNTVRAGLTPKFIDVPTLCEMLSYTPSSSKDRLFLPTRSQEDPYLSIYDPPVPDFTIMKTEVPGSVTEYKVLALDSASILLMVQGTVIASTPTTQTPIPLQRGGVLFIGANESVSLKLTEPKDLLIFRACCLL

[4] = target: Kallikrein-7 (Homo sapiens, UniProt P49862); assay: Fluorescence Intensity-based biochemical primary high throughput dose response assay to identify activators of kallikrein-7 (K7) zymogen.
[5] = target: Prothrombin (Homo sapiens, UniProt P00734); assay: Thrombin 1536 HTS Dose Response Confirmation. [Related pubchem assays: 1046 (Thrombin 1536 HTS; hits were confirmed in this assay)]; type: functional
[6] = target: T2, Protein Tat (Human immunodeficiency virus type 1 group M subtype B (isolate HXB2)(HIV-1), UniProt P04608); type: functional;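 note: tat binding to TAR RNA read out by fluorescence polarization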
T2 sequence (P04608 whole entry): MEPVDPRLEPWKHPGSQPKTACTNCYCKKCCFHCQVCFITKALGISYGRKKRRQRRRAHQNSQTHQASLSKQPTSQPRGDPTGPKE

[7] = tested on: H9c2; assay: cells; type: functional, cell-based; details: Rattus norvegicus, H9c2, Myocardium;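 note: confirmatory concentration-response retest of ultra-high-throughput screening hits for modulation of myocardial damage; cell death induced by hydrogen peroxide oxidative stress; compound pretreatment for 60 min then peroxide exposure for 2 h; potency is for protecting the cells against peroxide damage rather than for killing them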
[8] = target: T3, Beta-galactosidase (Escherichia coli, UniProt Q8VNN2); assay: detection-enzyme interference by beta-gal modulators – biochemical, E. coli enzyme, set 3, artefact control for CCR6 antagonist project, dose response (AID 504712); type: functional
[9] = target: DNA dC->dU-editing enzyme APOBEC-3A (Homo sapiens, UniProt P31941); assay: Dose Response confirmation of small molecule APOBEC3A DNA Deaminase Inhibitors via a fluorescence-based single-stranded DNA deaminase assay. [Related pubchem assays (depositor defined):AID493011, AID493024]; type: functional
[10] = target: DNA dC->dU-editing enzyme APOBEC-3G (Homo sapiens, UniProt Q9HC16); type: functional;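 note: Dose-response counterscreen measuring inhibition of APOBEC3G DNA deaminase activity, run while confirming APOBEC3A inhibitors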
[11] = target: T3, Beta-galactosidase; assay: Dose response counterscreen for EBI2 assay utilizing the enzyme, b-galactosidase.; type: functional

T3 sequence (Q8VNN2 whole entry): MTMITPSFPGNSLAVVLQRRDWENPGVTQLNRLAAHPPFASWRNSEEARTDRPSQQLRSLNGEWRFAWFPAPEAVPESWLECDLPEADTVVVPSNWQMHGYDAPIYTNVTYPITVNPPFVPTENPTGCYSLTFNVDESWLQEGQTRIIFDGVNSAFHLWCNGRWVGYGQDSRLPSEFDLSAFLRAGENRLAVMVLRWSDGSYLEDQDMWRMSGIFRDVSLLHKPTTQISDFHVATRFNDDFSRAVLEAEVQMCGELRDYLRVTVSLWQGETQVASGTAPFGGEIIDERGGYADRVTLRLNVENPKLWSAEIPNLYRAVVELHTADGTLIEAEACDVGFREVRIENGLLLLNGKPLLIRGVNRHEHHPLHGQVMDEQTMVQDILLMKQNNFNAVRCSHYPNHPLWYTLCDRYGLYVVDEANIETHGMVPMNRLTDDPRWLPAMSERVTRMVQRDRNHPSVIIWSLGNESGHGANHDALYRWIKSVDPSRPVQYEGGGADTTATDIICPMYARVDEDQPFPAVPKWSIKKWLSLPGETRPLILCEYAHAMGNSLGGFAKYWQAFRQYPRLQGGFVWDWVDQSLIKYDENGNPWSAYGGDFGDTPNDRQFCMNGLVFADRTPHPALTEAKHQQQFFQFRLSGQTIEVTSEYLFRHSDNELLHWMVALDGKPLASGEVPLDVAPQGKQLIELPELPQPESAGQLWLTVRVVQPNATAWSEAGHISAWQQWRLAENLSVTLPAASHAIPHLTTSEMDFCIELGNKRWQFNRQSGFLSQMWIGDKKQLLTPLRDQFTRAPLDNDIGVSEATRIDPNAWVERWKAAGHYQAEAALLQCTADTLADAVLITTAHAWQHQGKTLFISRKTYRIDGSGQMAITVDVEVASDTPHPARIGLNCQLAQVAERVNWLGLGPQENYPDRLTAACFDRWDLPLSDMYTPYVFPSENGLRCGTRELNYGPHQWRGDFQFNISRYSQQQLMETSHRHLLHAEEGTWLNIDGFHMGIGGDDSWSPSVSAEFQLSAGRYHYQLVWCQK
Chain of Kallikrein-7 (P49862 whole entry): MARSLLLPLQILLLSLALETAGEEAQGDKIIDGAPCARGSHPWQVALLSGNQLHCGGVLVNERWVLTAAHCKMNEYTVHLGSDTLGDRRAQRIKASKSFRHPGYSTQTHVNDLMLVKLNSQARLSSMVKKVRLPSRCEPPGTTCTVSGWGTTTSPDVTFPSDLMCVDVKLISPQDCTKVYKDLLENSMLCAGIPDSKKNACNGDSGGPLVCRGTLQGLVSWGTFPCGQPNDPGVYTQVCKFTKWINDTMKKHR
Chain of DNA dC->dU-editing enzyme APOBEC-3G (Q9HC16 whole entry): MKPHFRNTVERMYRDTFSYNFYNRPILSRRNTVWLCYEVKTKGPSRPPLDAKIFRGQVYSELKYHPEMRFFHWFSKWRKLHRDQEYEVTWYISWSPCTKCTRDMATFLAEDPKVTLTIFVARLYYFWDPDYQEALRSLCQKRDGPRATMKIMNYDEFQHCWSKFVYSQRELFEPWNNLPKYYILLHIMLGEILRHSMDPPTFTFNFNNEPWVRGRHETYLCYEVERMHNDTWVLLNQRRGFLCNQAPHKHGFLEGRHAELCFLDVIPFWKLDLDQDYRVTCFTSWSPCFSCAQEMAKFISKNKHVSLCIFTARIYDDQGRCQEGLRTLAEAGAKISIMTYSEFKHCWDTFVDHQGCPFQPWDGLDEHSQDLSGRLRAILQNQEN
Chain of DNA dC->dU-editing enzyme APOBEC-3A (P31941 whole entry): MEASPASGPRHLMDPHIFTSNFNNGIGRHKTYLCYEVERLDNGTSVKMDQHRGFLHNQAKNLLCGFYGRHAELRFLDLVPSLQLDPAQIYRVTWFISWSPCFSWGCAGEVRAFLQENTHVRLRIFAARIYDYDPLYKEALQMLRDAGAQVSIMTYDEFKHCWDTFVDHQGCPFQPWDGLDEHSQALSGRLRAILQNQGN

Structure (SMILES): CC(C)C1Oc2ccccc2N(CC(=O)N(Cc2ccccn2)C2CC2)C1=O (configuration not stated)
IC50 [1]: > 109 µM (inactive)
IC50 [2]: > 83.3 µM (inactive)

Structure (SMILES): CN(C)c1ccc(C(=S)N2CCOCC2)cc1Br
IC50 [3]: > 50 µM (not active)

Structure (SMILES): Cc1ccc(N2CCN(c3ccc(C)cc3)C2c2ccccn2)cc1
IC50 [6]: > 100 µM (active)

Structure (SMILES): O=c1c2ccccc2nc(/C=C/c2ccc(O)cc2)n1-c1ccc(O)cc1
EC50 [4]: 21.7 µM (inactive)
IC50 [7]: > 79 µM (inactive)

Structure (SMILES): Cn1nnnc1SCC(=O)Nc1ccc(Br)cc1Cl
IC50 [9]: 5.35 µM (active)
IC50 [10]: 9.75 µM (active)

Structure (SMILES): O=C1NCC(COCc2ccco2)O1 (configuration not stated)
IC50 [5]: > 50 µM (not active)

Continued, values first:

EC50 [4]: > 69.5 µM (inactive)
Structure (SMILES): CCN1c2ccccc2-c2nc3ccccc3n2C1c1ccccn1 (configuration not stated)

IC50 [5]: 0.0753 µM (active)
Structure (SMILES): Nc1nc(-c2cccnc2)nn1C(=O)Cc1ccccc1

EC50 [4]: 8.2 µM (active)
Structure (SMILES): COC(=O)CC1=C(C(=O)OC)[C@@H](c2ccccc2[N+](=O)[O-])C(C#N)=C(N)O1

IC50 [6]: > 100 µM (active)
Structure (SMILES): CCn1c(SCC(=O)NCc2ccco2)nnc1-c1cccs1

IC50 [8]: > 66.6 µM (inactive)
Structure (SMILES): O=C(NC(=S)N(CCc1ccccc1)CCc1ccccc1)c1ccco1

IC50 [8]: > 66.6 µM (inactive)
Structure (SMILES): CCCCn1c(N)c(C(=S)NC(=O)CC(C)C)c(=O)n(C)c1=O

IC50 [11]: > 80 µM (inactive)
Structure (SMILES): COc1ccc(N2CCN(C(=O)c3cc(=O)c4cc(C)cc(C)c4o3)CC2)cc1

IC50 [11]: > 80 µM (inactive)
Structure (SMILES): CCN(CC(=O)Nc1c(F)cccc1F)C(=O)/C=C/c1ccc(C)cc1
